Source: US7534913B2, “Crystalline form of nateglinide” (Teva Pharmaceutica Industries Ltd., priority 2002, dated 2009)
Each block holds one compound with its values, some of them ahead of it.

Key:
[1] = by DSC, according to U.S. Pat. No. 5,463,116; cited from earlier work
[2] = Thermal stability: transformation of crystalline forms on drying or heating, form by XRPD; format: physicochemical; details: for form obtained upon drying / heating: generally about 40° C. to about 80° C.
Method: The various crystalline forms are related to each other in that drying of one form may result in a transformation to another form, namely nateglinide Forms A, B, D, E, F, G, H, I, J, K, L, M, N, Q, S, T, V, Z, α, β, δ,γ, ε, θ and Ω. The drying is carried out by heating a sample under ambient or reduced pressure. Generally, a preferred temperature is from about 40° C. to about 80° C., more preferably under reduced pressure. […] The term “stable” as used herein refers to a polymorphic change of less than about 5% by weight, more preferably less than about 2%, particularly for Form δ.
Form γ may also be prepared by heating Form J containing seeds of Form γ under similar conditions.
• X-Ray diffraction was performed on X-Ray powder diffractometer, Scintag®, variable goniometer, Cu-tube, solid state detector. Sample holder: A round standard aluminum sample holder with round zero background quartz plate. • The sample was put on the sample holder and immediately analyzed as is. Scanning parameters: Range: 2-40 deg 2θ, Continuos Scan, Rate: 3 deg./min. DSC: • DSC821^e Mettler Toledo®, Sample weight: 3-5 mg, Heating rate: 10° C./min, Number of holes in the crucible: 3 TGA: • Mettler TG50®, Sample weight: 7-15 mg, Heating rate: 10° C./min FTIR: • Perkin-Elmer®, Spectrum One FTIR spectrometer, Range: 4000-400 cm-1, no. of scans: 16, resolution: 4.0 cm-1, DRIFT technique.
Nateglinide Form delta (10 grams), with about 3% heptane (wt/wt), was dried in a fluidized bed drier for 4 hours at 60° C.
Sample of nateglinide form U (˜1 g) was introduced into a 6-gram vial and heated over 8.5 h in a 100° C. oil bath. The vial were extracted from the bath.
Sample of nateglinide form U (˜0.5 g) was heated to 120° C. for 1 h in an atmospheric pressure.
Sample of nateglinide form δ (˜0.5 g) was heated to 120° C. for 1 h in an atmospheric pressure.
The product of example 11 was dried at 50° C. in a vacuum oven overnight, and analyzed by XRD.
Nateglinide (40 grams) Form delta (1.5% heptane) was dried in a stirred reactor (7-10 rpm) under 60 mmHg vacuum and at 60° C.

[3] = heating under ambient or reduced pressure

SMILES: CC(C)[C@H]1CC[C@H](C(=O)N[C@H](Cc2ccccc2)C(=O)O)CC1 [Form B, nateglinide]
stability of crystals during grinding [1]: unstable and susceptible to change during grinding

SMILES: CC(C)[C@H]1CC[C@H](C(=O)N[C@H](Cc2ccccc2)C(=O)O)CC1 [Form Ω, nateglinide]
form by XRD after drying in a vacuum oven ([2]; wet sample, 50° C., vacuum oven, overnight): mixture of Form omega and Form Z

SMILES: CC(C)[C@H]1CC[C@H](C(=O)N[C@H](Cc2ccccc2)C(=O)O)CC1 [delta]
polymorph after drying in a stirred reactor ([2]; 60 mmHg vacuum, 60° C., 6 hours, 7-10 rpm, starting with 1.5% heptane): remained delta form
polymorphic form after drying in a fluidized bed drier ([2]; 4 hours at 60° C., starting with about 3% heptane (wt/wt)): delta

Further lines, results first:

form obtained upon drying / heating [2, 3]: Form B
SMILES: CC(C)[C@H]1CC[C@H](C(=O)N[C@H](Cc2ccccc2)C(=O)O)CC1 [acetonitrile solvate of Form Epsilon, nateglinide]

form obtained upon drying / heating [2, 3]: Forms H or P
SMILES: CC(C)[C@H]1CC[C@H](C(=O)N[C@H](Cc2ccccc2)C(=O)O)CC1 [nitromethane solvates of Form Epsilon, nateglinide]

thermal stability (conversion to another form upon heating) [2, 3]: thermally stable
SMILES: CC(C)[C@H]1CC[C@H](C(=O)N[C@H](Cc2ccccc2)C(=O)O)CC1 [sigma]
